Measurements as given in ChEMBL document CHEMBL1201862, “PubChem BioAssay data set” (2004).
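The compound was tested at five concentrations on cells cultured in 96-well plates, with a 48-hour exposure period. At the GI50, growth is halved.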 Calls of active or inactive are those of the source. Rule as the data show it: active = GI50 up to about 1.1 µM and inactive = higher.

Tests used:
Assay in all cases: NCI-60 cell line screen, 48 h
[1] = tested on: OVCAR-5
[2] = tested on: NCI-H23
[3] = tested on: PC-3
[4] = tested on: T47D
[5] = tested on: SNB-75
[6] = tested on: MDA-MB-435
[7] = tested on: RXF 393
[8] = tested on: ACHN
[9] = tested on: M14
[10] = tested on: SNB-19
[11] = tested on: 786-0
[12] = tested on: UACC-257
[13] = tested on: UACC-62
[14] = tested on: EKVX
[15] = tested on: KM12
[16] = tested on: MOLT-4
[17] = tested on: SF-539
[18] = tested on: BT-549
[19] = tested on: MCF7
[20] = tested on: SW-620

Measured: GI50

NC1(C(=O)OCc2ccccc2)CCCC1
inactive: [1] 28.4 µM | [2] 17.5 µM | [3] 27.2 µM | [4] 25.3 µM | [5] 18 µM | [6] 15.1 µM | [7] 17.4 µM | [8] 15.2 µM | [9] 14.5 µM | [10] 21.2 µM | [11] 18 µM | [12] 19.2 µM | [13] 15.9 µM | [14] 24.5 µM | [15] 26 µM | [16] 11.8 µM | [17] 11.2 µM | [18] 17.1 µM | [19] 25.1 µM | [20] 36.6 µM

NCC(=O)C(O)C(O)C(O)CO (stereo not given)
inactive: [1] > 100 µM | [2] > 100 µM | [3] > 100 µM | [4] > 100 µM | [5] 65.9 µM | [6] > 100 µM | [7] > 100 µM | [8] > 100 µM | [9] > 100 µM | [10] > 100 µM | [11] > 100 µM | [12] > 100 µM | [13] > 100 µM | [14] > 100 µM | [15] > 100 µM | [16] > 100 µM | [17] > 100 µM | [18] > 100 µM | [19] > 100 µM | [20] > 100 µM

O=C1/C(=C/c2c(Cl)[nH]c3ccccc23)c2ccccc2N1c1ccccc1
inactive: [1] 12.9 µM | [2] 5.32 µM | [3] 4.28 µM | [4] 3.37 µM | [5] 6.81 µM | [6] 1.64 µM | [7] 11.9 µM | [8] 7.01 µM | [9] 3.93 µM | [10] 9.84 µM | [11] 6.56 µM | [12] 11.6 µM | [13] 5.65 µM | [14] 3.16 µM | [15] 3.86 µM | [16] 4.22 µM | [17] 3.7 µM | [18] 3.29 µM | [19] 4.02 µM | [20] 5.15 µM

CSc1nc2ccccc2c(=O)n1-c1cccc(C)c1
inactive: [1] > 100 µM | [2] > 100 µM | [3] 46.6 µM | [4] 29.2 µM | [5] 32 µM | [6] 29.1 µM | [7] 81.8 µM | [8] 97.9 µM | [9] 95.5 µM | [10] > 100 µM | [11] > 100 µM | [12] 31.1 µM | [13] 71 µM | [14] 73.6 µM | [15] 45.3 µM | [16] 28.8 µM | [17] 78.9 µM | [18] > 100 µM | [19] 32.5 µM | [20] 31.9 µM

COC(=O)[C@@H]1[C@H](OC(C)=O)CCC2[C@@]3(C[C@@H](c4ccoc4)O[C@@H]3OC)[C@H](C)CC[C@]21C(=O)OC (stereo not given in full)
inactive: [1] > 25 µM | [2] > 25 µM | [3] > 25 µM | [4] > 25 µM | [5] > 25 µM | [6] > 25 µM | [7] > 25 µM | [8] > 25 µM | [9] > 25 µM | [10] > 25 µM | [11] > 25 µM | [12] > 25 µM | [13] > 25 µM | [14] > 25 µM | [15] > 25 µM | [16] > 25 µM | [17] > 25 µM | [18] > 25 µM | [19] > 25 µM | [20] > 25 µM

COc1cc2cc(C(=O)N3CC(CCl)c4ccc([N+](C)(C)Cc5ccc([N+](=O)[O-])cc5)cc43)[nH]c2c(OC)c1OC (stereo not given)
inactive: [1] 3.87 µM | [2] 1.77 µM | [3] 2.09 µM | [4] 3.48 µM | [5] 3.3 µM | [6] 4.54 µM | [7] 1.36 µM | [8] 2.29 µM | [9] 5.68 µM | [10] 8.53 µM | [11] 2.32 µM | [12] 1.83 µM | [13] 2.13 µM | [14] 5.69 µM | [15] 2.77 µM | [16] 2.1 µM | [17] 1.78 µM | [18] 5.74 µM | [19] 2.14 µM | [20] 1.5 µM

[O-][n+]1onc2c3nn(-c4ccccc4)nc3ccc21
inactive: [1] > 100 µM | [2] 41.6 µM | [3] > 83.2 µM | [4] 7.4 µM | [5] > 100 µM | [6] > 100 µM | [7] > 65.9 µM | [8] 88.3 µM | [9] > 100 µM | [10] > 100 µM | [11] > 100 µM | [12] 28.8 µM | [13] > 86.1 µM | [14] > 74.8 µM | [15] 18.6 µM | [16] 5.08 µM | [17] > 100 µM | [18] > 82.6 µM | [19] 7.69 µM | [20] 65.8 µM

C=C1c2nc3ccccc3n2C=C(c2ccc(C)cc2)N1c1ccc(C)cc1
inactive: [1] > 100 µM | [2] > 59.6 µM | [3] 28.6 µM | [4] > 100 µM | [5] > 100 µM | [6] 11.6 µM | [7] 25.9 µM | [8] > 78 µM | [9] 56.1 µM | [10] > 100 µM | [11] 78.3 µM | [12] 67.3 µM | [13] > 83.8 µM | [14] 46.6 µM | [15] 23.8 µM | [16] 31.6 µM | [17] > 48.1 µM | [18] 51.6 µM | [19] 26.2 µM | [20] 36.8 µM

Clc1ccc(CSCCc2ccncc2)cc1Cl
inactive: [1] 23.3 µM | [2] 22 µM | [3] 21.2 µM | [4] 26.3 µM | [5] 22.9 µM | [6] 22.6 µM | [7] 21.9 µM | [8] 21.7 µM | [9] 17.2 µM | [10] 17.8 µM | [11] 17.2 µM | [12] 35.9 µM | [13] 15.3 µM | [14] 20.4 µM | [15] 21.2 µM | [16] 15.8 µM | [17] 17 µM | [18] 19.6 µM | [19] 19.5 µM | [20] 19.6 µM

Nc1ccc(/N=N\c2ccc(-c3ccc(O)cc3)cc2)c2ccc(S(=O)(=O)O)cc12
inactive: [1] > 100 µM | [2] > 100 µM | [3] > 100 µM | [4] > 100 µM | [5] 77.1 µM | [6] > 100 µM | [7] > 100 µM | [8] > 100 µM | [9] > 100 µM | [10] > 100 µM | [11] > 100 µM | [12] > 100 µM | [13] > 100 µM | [14] > 100 µM | [15] > 100 µM | [16] > 100 µM | [17] > 100 µM | [18] > 100 µM | [19] > 100 µM | [20] > 100 µM

CCc1ccccc1NC(=O)C(C#N)C1=C(Cl)C(=O)c2ccccc2C1=O (stereo not given)
inactive: [1] 18.6 µM | [2] 12.6 µM | [3] 14.6 µM | [4] 19.5 µM | [5] 17.3 µM | [6] 25.6 µM | [7] 20.5 µM | [8] 15.2 µM | [9] 6.71 µM | [10] 25.4 µM | [11] 15.5 µM | [12] 16.4 µM | [13] 16.8 µM | [14] 17.1 µM | [15] 13.5 µM | [16] 8.73 µM | [17] 18.9 µM | [18] 21.9 µM | [19] 22.8 µM | [20] 18.4 µM
